US20250270180A1, “MEK INHIBITORS AND THERAPEUTIC USES THEREOF” (Immuneering Corporation, priority 2020, published 2025)
Like-named read-outs stand apart in the source and are kept apart here.

Experiments:
[1] = target: T1, CYP450 2C8 (Homo sapiens, UniProt P10632); experiment: CYP450 panel, 2C8; settings: 10 μM; substrate amodiaquine
T1 sequence (P10632 1-490): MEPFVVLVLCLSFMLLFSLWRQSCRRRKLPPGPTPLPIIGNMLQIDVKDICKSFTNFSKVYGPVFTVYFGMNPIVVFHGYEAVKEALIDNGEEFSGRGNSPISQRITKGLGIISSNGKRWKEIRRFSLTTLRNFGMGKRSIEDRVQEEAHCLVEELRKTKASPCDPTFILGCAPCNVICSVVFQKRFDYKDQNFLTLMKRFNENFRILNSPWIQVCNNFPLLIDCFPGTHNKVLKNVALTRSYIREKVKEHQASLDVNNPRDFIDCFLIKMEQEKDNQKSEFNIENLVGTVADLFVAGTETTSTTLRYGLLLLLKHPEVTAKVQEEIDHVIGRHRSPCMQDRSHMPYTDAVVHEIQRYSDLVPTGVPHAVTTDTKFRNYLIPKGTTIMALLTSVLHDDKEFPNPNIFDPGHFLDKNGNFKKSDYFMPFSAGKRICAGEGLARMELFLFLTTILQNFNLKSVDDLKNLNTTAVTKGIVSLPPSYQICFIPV

[2] = Plasma stability, beagle dog; format: in vitro ADME; settings: 2 μM
[3] = Pharmacokinetics, single dose, 2-hour tissue levels in Colon26 tumor bearing mice; format: in vivo; settings: female, athymic BALB/c nude or BALB/c, mouse, po, single dose 100 mg/kg p.o., 2-hour post dose
Protocol: Female mice (either athymic BALC/c nude, or BALB/c mice) were inoculated with a single subcutaneous injection of 0.2 ml of mouse Colon-26 cell suspension (1×10^5 cells per animal) in the inguinal region. Colon26 (C26) tumor bearing mice received a single dose (3 mice/treatment) of vehicle (10% DMSO/90% [20% SBE-β-CD in saline], pH 5) containing compounds at 100 mg/kg by gavage (p.o.) and 2-hour post dose humanely euthanized.
Blood was obtained through cardiac puncture into K+EDTA tubes, mixed by inversion and centrifuged to obtain the plasma. Tissues were excised, cleaned of surrounding tissues. All samples immediately snap frozen in liquid N2 prior to LC-MS/MS analysis (using Waters HSS T3 2.1×50 mm (1.8 um) LC column, and an API-6500 Electrospray MS unit).

[4] = Plasma stability, human; format: in vitro ADME; settings: 2 μM
[5] = target: CYP450 2C9 (Homo sapiens, UniProt P11712); experiment: CYP450 panel, 2C9; settings: 10 μM; substrate Diclofenac
[6] = target: CYP450 2C19 (Homo sapiens, UniProt P33261); experiment: CYP450 panel, 2C19; settings: 10 μM; substrate mephenytoin
[7] = system: A549 pERK; experiment: A549-pERK, 2 h (quantitative Western, Jess); format: cell-based; settings: Homo sapiens, A549, 2 h, phospho:total ratio normalized to DMSO control
Procedure, shortened: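 Cells treated in duplicate for 2 h with compound, lysed and protein-normalised (1 mg/mL pERK, 1.5 mg/mL pMEK). Quantitative capillary Western; phospho/total protein ratio normalised to DMSO.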

[8] = target: CYP450 2D6 (Homo sapiens, UniProt P10635); experiment: CYP450 panel, 2D6; settings: 10 μM; substrate dextromethophan
[9] = Plasma stability, CD-1 mouse; format: in vitro ADME; settings: 2 μM
[10] = Microsome stability, human; format: in vitro ADME; settings: microsomes, 2 μM
[11] = Microsome stability, CD-1 mouse; settings: microsomes, 2 μM
[12] = target: T2, CYP450 2B6 (Homo sapiens, UniProt P20813); experiment: CYP450 panel, 2B6; settings: 10 μM; substrate bupropion
T2 sequence (P20813 1-491): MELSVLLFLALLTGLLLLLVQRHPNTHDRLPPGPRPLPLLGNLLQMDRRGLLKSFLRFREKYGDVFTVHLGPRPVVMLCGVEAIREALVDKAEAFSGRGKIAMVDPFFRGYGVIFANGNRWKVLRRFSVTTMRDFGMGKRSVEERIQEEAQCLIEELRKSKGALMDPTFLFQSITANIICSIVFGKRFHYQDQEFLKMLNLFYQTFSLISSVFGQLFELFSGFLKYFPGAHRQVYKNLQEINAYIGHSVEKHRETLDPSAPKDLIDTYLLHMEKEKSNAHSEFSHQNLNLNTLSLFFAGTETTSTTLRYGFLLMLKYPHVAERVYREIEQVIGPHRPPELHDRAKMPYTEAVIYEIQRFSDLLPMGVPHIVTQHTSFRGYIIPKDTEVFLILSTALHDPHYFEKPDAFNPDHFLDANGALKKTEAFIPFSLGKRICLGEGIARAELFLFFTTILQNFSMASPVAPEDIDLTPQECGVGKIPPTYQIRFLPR

Chain of CYP450 2D6 (P10635 whole entry): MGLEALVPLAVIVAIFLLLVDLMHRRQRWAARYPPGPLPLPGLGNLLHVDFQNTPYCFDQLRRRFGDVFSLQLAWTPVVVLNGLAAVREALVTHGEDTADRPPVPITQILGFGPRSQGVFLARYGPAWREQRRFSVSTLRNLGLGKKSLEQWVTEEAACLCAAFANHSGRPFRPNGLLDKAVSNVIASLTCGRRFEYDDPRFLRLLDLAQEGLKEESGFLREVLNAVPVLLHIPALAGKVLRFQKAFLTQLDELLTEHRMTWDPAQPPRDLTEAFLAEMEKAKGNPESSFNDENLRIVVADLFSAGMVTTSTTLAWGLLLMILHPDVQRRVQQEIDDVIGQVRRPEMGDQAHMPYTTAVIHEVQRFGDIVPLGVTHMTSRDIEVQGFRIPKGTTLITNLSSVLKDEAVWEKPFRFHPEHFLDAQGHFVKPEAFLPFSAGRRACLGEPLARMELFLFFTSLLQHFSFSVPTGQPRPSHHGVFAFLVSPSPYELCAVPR
Chain of CYP450 2C19 (P33261 whole entry): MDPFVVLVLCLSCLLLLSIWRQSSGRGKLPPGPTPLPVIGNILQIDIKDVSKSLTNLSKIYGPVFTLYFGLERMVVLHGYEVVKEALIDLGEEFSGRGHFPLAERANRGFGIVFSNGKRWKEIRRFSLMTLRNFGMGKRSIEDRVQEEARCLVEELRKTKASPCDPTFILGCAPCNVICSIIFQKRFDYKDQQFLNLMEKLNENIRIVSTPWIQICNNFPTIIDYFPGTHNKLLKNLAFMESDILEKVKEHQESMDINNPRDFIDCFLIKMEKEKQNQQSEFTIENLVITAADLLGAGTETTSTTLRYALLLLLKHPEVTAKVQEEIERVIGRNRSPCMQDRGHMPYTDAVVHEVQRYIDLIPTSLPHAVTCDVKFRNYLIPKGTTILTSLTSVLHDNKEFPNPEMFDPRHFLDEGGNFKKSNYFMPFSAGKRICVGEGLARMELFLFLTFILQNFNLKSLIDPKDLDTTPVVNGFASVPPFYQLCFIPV
Chain of CYP450 2C9 (P11712 whole entry): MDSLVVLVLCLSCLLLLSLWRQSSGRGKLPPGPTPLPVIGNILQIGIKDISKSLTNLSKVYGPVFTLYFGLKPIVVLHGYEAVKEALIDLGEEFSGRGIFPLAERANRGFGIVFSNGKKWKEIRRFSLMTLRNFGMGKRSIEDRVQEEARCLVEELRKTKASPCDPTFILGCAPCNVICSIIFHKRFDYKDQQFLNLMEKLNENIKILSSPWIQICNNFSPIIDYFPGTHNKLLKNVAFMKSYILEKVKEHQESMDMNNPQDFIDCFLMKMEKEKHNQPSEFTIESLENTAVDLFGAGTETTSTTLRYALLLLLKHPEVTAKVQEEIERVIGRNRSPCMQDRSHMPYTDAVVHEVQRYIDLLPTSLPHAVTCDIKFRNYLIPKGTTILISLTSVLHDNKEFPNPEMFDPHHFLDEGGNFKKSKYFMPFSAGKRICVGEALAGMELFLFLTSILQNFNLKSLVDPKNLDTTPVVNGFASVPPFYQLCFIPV

Structure (SMILES) | 2C8* [1] | Beagle Dog (% Reamining @2 hour) [2] [%] | concentration at 2 h ([3]; liver, read-out: Liver) [ng/g] | concentration at 2 h ([3]; muscle, read-out: Muscle) [ng/g] | concentration at 2 h ([3]; plasma, read-out: Plasma) [ng/mL] | concentration at 2 h ([3]; tumor, read-out: Tumor) [ng/g] | Human (% Reamining @2 hour) [4] [%] | 2C9* [5] | 2C19* [6] | activity at 0.01 µM ([7]; 10 nM) [%] | activity at 10 µM ([7]; 10 uM) [%] | 2D6* [8] | CD-1 Mouse (% Reamining @2 hour) [9] [%] | Human (% Reamining @1 hour) [10] [%] | CD-1 Mouse (% Reamining @1 hour) [11] [%] | 2B6* [12]
CNS(=O)(=O)Nc1cccc(Cc2c(CN(C)C)c3ccc(OC(=O)N(C)C)cc3oc2=O)c1F [Compound 9] | 4.0 | 96.8 | 1260 | 363 | 407 | 1350 | 95.1 | 6.8 | 8.2 | 63 | 1.21 | −3.7 | 90.6 | 51.7 | 54.3 | 14.8
Cn1cnc2c(F)c(Nc3ccc(Br)cc3Cl)c(C(=O)NOCCO)cc21 [Reference 1, Selumetinib, reference compound] | 18.9 | 100.4 | – | – | – | – | 98.1 | 14.1 | 13.9 | – | – | 5.0 | 104.8 | 75.8 | 13.9 | 30.2
CNS(=O)(=O)Nc1nccc(Cc2c(C)c3ccc(Oc4ncccn4)cc3oc2=O)c1F [Reference 2, reference compound] | – | 99.8 | 1990 | 550 | 5670 | 819 | 91.1 | – | −0.9 | – | – | 3.4 | 92.9 | 107.1 | 96.0 | –
